Measurements from ChEMBL document CHEMBL1135486, “Acylating agents as enzyme inhibitors and understanding their reactivity for drug design” (J Med Chem, 2002).

Experiment: Second-order rate constant (M-1 s-1) for the alkaline hydrolysis in water at 30 degrees C
Details: buffer

Row | Compound | kOH [M⁻¹ s⁻¹]
1 | CC(C)[C@@H]1C(=O)N(S(C)(=O)=O)[C@@H]2CCN(C(=O)c3coc(CN4CCCC4)n3)[C@H]21 | 0.08
2 | CC(C)[C@@H]1C(=O)N(S(C)(=O)=O)[C@@H]2CCN(C(=O)C3CN(CC(C)(C)C)C3)[C@H]21 | 0.0601
3 | C=CC[C@H]1C(=O)OC2CCN(C(=O)OCc3ccccc3)[C@@H]21 (some centres undefined) | 0.252
4 | CC(C)[C@@H]1C(=O)N(S(C)(=O)=O)[C@@H]2CCN(C(=O)/C=C/CN3CCCCC3)[C@H]21 | 0.07
5 | CN1C(=O)CCC1=O | 0.825
6 | CCC[C@H](NC(=O)N1C(=O)C(CC)(CC)C1Oc1ccc(C(=O)N2CCN(C)CC2)cc1)c1ccc2c(c1)OCO2 (some centres undefined) | 0.027
7 | O=C1c2ccccc2S(=O)(=O)N1Cc1ccccc1 | 4.06
8 | CC(=O)N(C)C(C)=O | 1.54
9 | CC(=O)N(C)S(=O)(=O)Cc1ccccc1 | 1.3
10 | O=C1CCCN1c1ccccc1 | 0.000013
11 | O=C1CCCN1 [2-PYRROLIDONE] | 1.2
12 | O=C1CCCO1 [BUTYROLACTONE] | 1.31
13 | CCOC(C)=O [ETHYL ACETATE] | 0.164
14 | CN1CCCC1=O [METHYLPYRROLIDONE] | 3.07
